This note sets out measurements from PubChem BioAssay (NCI).

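In this assay, cells in 96-well plates receive the compound at five concentrations for 48 hours. Endpoints are linearly interpolated between the surrounding concentrations. Here, GI50 denotes the concentration required for 50% inhibition of growth. TGI denotes the concentration required for complete inhibition of growth.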 *1 amine or outer side, *2 acyl side, *3 side chain or, on linkers, in order; H or OH if unused. Where a SMILES comes first, the peptide text is derived from it. [ ]: non-standard residue; d: D form. The star is where a group is joined. ξ: configuration not given here. X15 = CCN(CC)c1ccc2cc(N*)c(=O)oc2c1; dIva = CC[C@@](C)(N)C(=O)O; X14 = O=C(OCCN[*:1])[*:2]; Aib = CC(C)(N)C(=O)O; ξP = O=C(O)C1CCCN1; βAla = NCCC(=O)O

Test systems include M14 melanoma; NCI-H23 lung; ACHN renal; RPMI-8226 leukemia; SNB-75 CNS; NCI-H522 lung; CCRF-CEM leukemia; MALME-3M melanoma.
Experiment in all cases: DTP human tumour cell line panel, 48 h

The GI50 is the concentration that inhibits growth by half. By TGI is commonly meant the concentration giving total growth inhibition. Low readings indicate more potent growth arrest, high ones less potent growth arrest. As for `CCOC(=O)c1nc(Nc2ccc(Cl)cc2)c2ccccc2n1`, the GI50 was 12.4 µM in the test on M14 melanoma; 10.7 µM in the test on NCI-H23 lung; 9.3 µM with ACHN renal; 11.8 µM in the test on RPMI-8226 leukemia; 11.9 µM in the test with SNB-75 CNS; 10.5 µM in the test on NCI-H522 lung. In addition, the concentration for total growth inhibition (TGI) with M14 melanoma is 30.6 µM; in the test on NCI-H23 lung it was 18.9 µM; in the test on ACHN renal, 19.2 µM; in the test on RPMI-8226 leukemia, 30.2 µM; in the test on SNB-75 CNS, 29.5 µM; with NCI-H522 lung it was 25.8 µM.

In the case of `Nc1cc(N)c2nc(-c3ccccc3)c(NCc3ccc(F)cc3)nc2c1`, the GI50 in the test with M14 melanoma was 23.7 µM; in the test on NCI-H23 lung, 2.38 µM; in the test on ACHN renal, 1.71 µM; in the test on RPMI-8226 leukemia, 2.54 µM; in the test with SNB-75 CNS, 2.16 µM; with NCI-H522 lung it was over 100 µM. Further, the TGI in the test on M14 melanoma is 55.9 µM; in the test with NCI-H23 lung it was 4.6 µM; in the test on ACHN renal, 3.11 µM; in the test on RPMI-8226 leukemia it was 6.25 µM; in the test on SNB-75 CNS it was 5.06 µM; in the test on NCI-H522 lung it was over 100 µM.

Consider `CCCOc1nc(SCCC)nc2c1cnn2-c1ccccc1`, for which the GI50 with M14 melanoma is over 100 µM; in the test with CCRF-CEM leukemia, 56.7 µM; in the test with NCI-H23 lung it was over 100 µM; in the test on ACHN renal, over 100 µM; in the test on RPMI-8226 leukemia, 70.9 µM; in the test on SNB-75 CNS it was over 100 µM. The GI50 in the test on MALME-3M melanoma was over 100 µM. Also, the TGI in the test with M14 melanoma, in the test with CCRF-CEM leukemia, with NCI-H23 lung, with ACHN renal, in the test with RPMI-8226 leukemia and with SNB-75 CNS was over 100 µM throughout. In addition, the TGI in the test with MALME-3M melanoma was over 100 µM.

As for `CCN(CC)c1ccc2cc(NC(=O)OCCNC(=O)CCNC(=O)[C@H](CC(C)C)NC(=O)C(C)(C)NC(=O)C(C)(C)NC(=O)[C@H](CC(C)C)NC(=O)CCNC(=O)C(C)(C)NC(=O)[C@H](CC(C)C)NC(=O)CCNC(=O)[C@@](C)(CC)NC(=O)[C@H](C)NC(=O)CCNC(=O)C(C)(C)NC(=O)[C@H](C)NC(=O)[C@@H]3CCCN3C(=O)[C@@](C)(CC)NC(=O)[C@H](Cc3ccccc3)NC(=O)C3CCCN3C(=O)C(C)(C)NC(=O)C3CCCN3C(=O)C(C)(C)NC(C)=O)c(=O)oc2c1` (stereo partly drawn) (Ac-[Aib][ξP][Aib][ξP]F[dIva]PA[Aib][βAla]A[dIva][βAla]L[Aib][βAla]L[Aib][Aib]L[βAla][X14]-X15), the GI50 was 0.00838 µM in the test on M14 melanoma; 0.00465 µM in the test with CCRF-CEM leukemia; 0.00347 µM in the test on NCI-H23 lung; 0.0406 µM with ACHN renal; 0.00254 µM in the test on SNB-75 CNS; 0.0021 µM in the test with MALME-3M melanoma. In addition, the GI50 with NCI-H522 lung was 0.00305 µM. The TGI in the test with M14 melanoma came out at 0.0358 µM; in the test on CCRF-CEM leukemia, 0.0287 µM; with NCI-H23 lung, 0.014 µM; in the test on ACHN renal, 0.16 µM; in the test on SNB-75 CNS, 0.0242 µM; in the test with MALME-3M melanoma it was 0.00597 µM. In addition, the TGI with NCI-H522 lung was determined as 0.0124 µM.

On to `Cc1ccc2c(c1)C(=O)c1c-2n(CCCBr)c(=O)c2cc([N+](=O)[O-])ccc12`, for which the GI50 in the test on M14 melanoma is 45.8 µM; in the test on CCRF-CEM leukemia, 5.29 µM; with ACHN renal, 23.3 µM; in the test on RPMI-8226 leukemia, 19.2 µM; in the test on SNB-75 CNS, 48.1 µM; in the test on MALME-3M melanoma, over 100 µM. Further, the GI50 in the test on NCI-H522 lung was 12.2 µM. Moreover, the TGI in the test on M14 melanoma is over 100 µM; in the test with CCRF-CEM leukemia, 46.4 µM; with ACHN renal it was over 100 µM; in the test on RPMI-8226 leukemia, over 100 µM; in the test on SNB-75 CNS, over 100 µM; with MALME-3M melanoma, over 100 µM. Further, in the test with NCI-H522 lung, the TGI is 96.2 µM.

Consider `Nc1c(C(=O)Nc2ccccc2)sc2nc3c(cc12)CN(Cc1ccccc1)CC3`, for which the GI50 is 30.8 µM with M14 melanoma; 50.3 µM with CCRF-CEM leukemia; 21.7 µM in the test with NCI-H23 lung; 5.5 µM in the test on ACHN renal; 55.8 µM with RPMI-8226 leukemia; 3.8 µM with MALME-3M melanoma. For the same compound, in the test on NCI-H522 lung, the GI50 is 32.5 µM. Also, the TGI with M14 melanoma, with CCRF-CEM leukemia, in the test with NCI-H23 lung, in the test on ACHN renal, in the test on RPMI-8226 leukemia and in the test with MALME-3M melanoma was over 100 µM each time. This compound gave a TGI with NCI-H522 lung of over 100 µM.

On to `CC12CC(OC(=O)[C@]1(C)O)[C@@H]([C@]1(O)CC[C@H]3[C@@H]4C[C@H]5O[C@]56[C@@H](O)C=CC(=O)[C@]6(C)[C@H]4CC[C@@]31C)C2` (stereo partly drawn), for which the TGI with M14 melanoma is 24.9 µM; in the test with CCRF-CEM leukemia, 7.16 µM; in the test on NCI-H23 lung, 14.4 µM; in the test on ACHN renal it was 22.9 µM; with NCI-H522 lung it was 2.92 µM.

Take `Cc1cn2c(/C=N/Nc3ccccn3)c(-c3ccc(Cl)c([N+](=O)[O-])c3)nc2s1`: the GI50 was 10.8 µM in the test with M14 melanoma; 10.9 µM in the test with NCI-H23 lung; 6.89 µM in the test with ACHN renal; 30.2 µM with RPMI-8226 leukemia; 7.35 µM in the test with NCI-H522 lung. For the same compound, the TGI is 23 µM with M14 melanoma; 27.2 µM with NCI-H23 lung; 15.5 µM in the test on ACHN renal; over 50 µM with RPMI-8226 leukemia; 26.5 µM with NCI-H522 lung.

With `CCCCCCCOc1c(OC)cc(C2CC(=O)Nc3c2c(C)nn3-c2nc3ccccc3[nH]2)cc1OC` (stereo not drawn), the GI50 in the test on M14 melanoma is 4.01 µM; with CCRF-CEM leukemia, 4.15 µM; in the test with NCI-H23 lung it was 2.95 µM; in the test on ACHN renal, 3.21 µM; in the test on RPMI-8226 leukemia, 3.71 µM; in the test on NCI-H522 lung it was 2.79 µM. In addition, the TGI in the test on M14 melanoma is over 100 µM; in the test with CCRF-CEM leukemia, over 100 µM; in the test with NCI-H23 lung, 9.96 µM; with ACHN renal, over 100 µM; with RPMI-8226 leukemia, over 100 µM; in the test with NCI-H522 lung it was 10.3 µM.

Consider `CSc1ccccc1C#Cc1ccccc1C#CCCCCO`, for which the GI50 with CCRF-CEM leukemia was 10.3 µM; in the test with NCI-H23 lung, 15.7 µM; in the test with ACHN renal, 11.3 µM; with RPMI-8226 leukemia, 6.79 µM; in the test on SNB-75 CNS, 13.8 µM; in the test with MALME-3M melanoma, 15.2 µM. Further, the GI50 in the test on NCI-H522 lung was 14.2 µM. The TGI worked out at 46.5 µM in the test on CCRF-CEM leukemia; 33 µM with NCI-H23 lung; 23.4 µM in the test on ACHN renal; 46.6 µM in the test on RPMI-8226 leukemia; 28 µM with SNB-75 CNS; 36.5 µM in the test with MALME-3M melanoma. The compound also came in with a TGI with NCI-H522 lung of 29.4 µM.

Turning to `O=c1cc(N=Nc2ccc(O)cc2)[nH]c(=O)[nH]1`, the TGI was over 100 µM in the test with M14 melanoma; over 100 µM in the test with NCI-H23 lung; over 100 µM in the test on ACHN renal; over 100 µM in the test with RPMI-8226 leukemia; 89.9 µM in the test on SNB-75 CNS; 89.2 µM with MALME-3M melanoma. This compound gave a TGI in the test with NCI-H522 lung of over 100 µM.
